Tests used:
[1] = tested on: Mycobacterium tuberculosis Erdman (autoluminescent); experiment: Einf, fitted maximum growth inhibition of combination (fraction); higher = stronger maximal inhibition
Description: (§1)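 DiaMOND equipotent two-drug combination dose responses against autoluminescent M. tuberculosis Erdman in 8 in vitro models. Read-out is OD600, or luminescence for the intracellular and dormancy models, normalised to untreated wells. Hill-fit Einf, AUC25 and GRinf are potency metrics; FIC50 and FIC90 are Loewe-additivity fractional inhibitory concentrations, given as log2 (negative = synergy). Replicates are averaged.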

[2] = tested on: Mycobacterium tuberculosis Erdman (autoluminescent); experiment: FIC90 (Loewe) at 90% inhibition (log2); higher = more antagonistic
Description: as §1

[3] = tested on: Mycobacterium tuberculosis Erdman (autoluminescent); experiment: GRinf, maximum normalised growth rate inhibition (unitless (-1 to 1)); higher = less effect (negative = killing)
Description: as §1

[4] = tested on: Mycobacterium tuberculosis Erdman (autoluminescent); experiment: AUC25, normalised area under dose response up to IC25 (fraction (0-1)); higher = more potent at low dose
Description: as §1

[5] = tested on: Mycobacterium tuberculosis Erdman (autoluminescent); experiment: FIC50 (Loewe) at 50% inhibition (log2); higher = more antagonistic
Description: as §1

COc1nc2ccc(Br)cc2cc1[C@@H](c1ccccc1)[C@@](O)(CCN(C)C)c1cccc2ccccc12 [bedaquiline] + O=[N+]([O-])c1cn2c(n1)OC[C@@H](OCc1ccc(OC(F)(F)F)cc1)C2 [pretomanid]
Conditions	AUC25, [4]	Einf, [1]	FIC50, [5]	FIC90, [2]	GRinf, [3]
in vitro model: acidic pH 5.7, time point: constant (~7 days, model-specific)	0.121	0.879	0.399	0.503	-0.293
in vitro model: acidic pH 5.7, time point: terminal (~4-5 doublings, model-specific)	0.0888	0.973	0.169	0.292	-0.358
in vitro model: intracellular J774, time point: constant = terminal	–	1	–	0.703	-0.579

Conditions	AUC25, [4]	Einf, [1]	FIC50, [5]	FIC90, [2]	GRinf, [3]
in vitro model: butyrate, time point: constant (~7 days, model-specific)	0.105	0.96	0.76	1.49	-0.17
in vitro model: butyrate, time point: terminal (~4-5 doublings, model-specific)	0.0889	0.99	0.874	1.5	-0.346
in vitro model: cholesterol 0.05 mM, time point: constant (~7 days, model-specific)	0.118	0.737	0.484	–	-0.158
in vitro model: cholesterol 0.05 mM, time point: terminal (~4-5 doublings, model-specific)	0.0926	0.928	0.466	1.33	-0.23
in vitro model: cholesterol-high 0.2 mM, time point: constant (~7 days, model-specific)	0.0648	0.883	0.673	1.04	-0.183
in vitro model: cholesterol-high 0.2 mM, time point: terminal (~4-5 doublings, model-specific)	0.0479	0.991	0.686	0.706	-0.576
in vitro model: dormancy (butyrate + nitrate, low O2), time point: constant (~7 days, model-specific)	0.0466	0.927	-0.341	-0.857	0.169
in vitro model: dormancy (butyrate + nitrate, low O2), time point: terminal (~4-5 doublings, model-specific)	0.0475	0.98	-0.522	-1.14	-0.0913
in vitro model: standard 7H9 glycerol, time point: constant = terminal	0.0817	0.982	0.0934	0.269	-0.196
in vitro model: valerate, time point: constant (~7 days, model-specific)	0.136	0.935	0.105	1.2	-0.238
in vitro model: valerate, time point: terminal (~4-5 doublings, model-specific)	0.099	0.96	0.0653	0.71	-0.0796

CC(C)/N=c1\cc2n(-c3ccc(Cl)cc3)c3ccccc3nc-2cc1Nc1ccc(Cl)cc1 [clofazimine] + CC(=O)NC[C@H]1CN(c2ccc(N3CCOCC3)c(F)c2)C(=O)O1 [linezolid]
Conditions	AUC25, [4]	Einf, [1]	FIC50, [5]	FIC90, [2]	GRinf, [3]
in vitro model: acidic pH 5.7, time point: constant (~7 days, model-specific)	0.0778	0.864	0.346	–	-0.00597
in vitro model: acidic pH 5.7, time point: terminal (~4-5 doublings, model-specific)	0.111	0.973	0.329	0.0194	-0.305
in vitro model: intracellular J774, time point: constant = terminal	–	0.855	–	0.457	-0.0533

Conditions	AUC25, [4]	Einf, [1]	FIC50, [5]	FIC90, [2]	GRinf, [3]
in vitro model: butyrate, time point: constant (~7 days, model-specific)	0.113	0.957	0.573	0.875	-0.158
in vitro model: butyrate, time point: terminal (~4-5 doublings, model-specific)	0.0908	0.98	0.626	0.85	-0.142
in vitro model: cholesterol 0.05 mM, time point: constant (~7 days, model-specific)	0.152	0.747	-0.262	–	-0.0419
in vitro model: cholesterol 0.05 mM, time point: terminal (~4-5 doublings, model-specific)	0.164	0.951	-0.033	1.4	-0.35
in vitro model: cholesterol-high 0.2 mM, time point: constant (~7 days, model-specific)	0.131	0.917	0.143	1.38	-0.536
in vitro model: cholesterol-high 0.2 mM, time point: terminal (~4-5 doublings, model-specific)	0.133	0.994	-0.317	0.449	-0.854
in vitro model: dormancy (butyrate + nitrate, low O2), time point: constant (~7 days, model-specific)	0.0454	0.901	1.67	0.93	0.239
in vitro model: dormancy (butyrate + nitrate, low O2), time point: terminal (~4-5 doublings, model-specific)	0.0463	0.981	1.05	0.839	-0.123
in vitro model: standard 7H9 glycerol, time point: constant = terminal	0.117	0.979	0.286	0.696	-0.276
in vitro model: valerate, time point: constant (~7 days, model-specific)	0.148	0.925	-0.104	0.827	-0.186
in vitro model: valerate, time point: terminal (~4-5 doublings, model-specific)	0.0982	0.944	0.165	0.597	-0.107

CC(C)/N=c1\cc2n(-c3ccc(Cl)cc3)c3ccccc3nc-2cc1Nc1ccc(Cl)cc1 [clofazimine] + CC[C@@H](CO)NCCN[C@@H](CC)CO [ethambutol]
Conditions	AUC25, [4]	Einf, [1]	FIC50, [5]	FIC90, [2]	GRinf, [3]
in vitro model: acidic pH 5.7, time point: constant (~7 days, model-specific)	0.101	0.702	0.298	–	0.0851
in vitro model: acidic pH 5.7, time point: terminal (~4-5 doublings, model-specific)	0.0812	0.937	0.474	0.294	-0.228
in vitro model: intracellular J774, time point: constant = terminal	–	1	–	-0.448	-0.789

Conditions	AUC25, [4]	Einf, [1]	FIC50, [5]	FIC90, [2]	GRinf, [3]
in vitro model: butyrate, time point: constant (~7 days, model-specific)	0.0939	0.947	0.311	–	-0.0791
in vitro model: butyrate, time point: terminal (~4-5 doublings, model-specific)	0.0809	0.975	0.299	0.104	-0.0975
in vitro model: cholesterol 0.05 mM, time point: constant (~7 days, model-specific)	0.13	0.635	0.526	–	-0.0623
in vitro model: cholesterol 0.05 mM, time point: terminal (~4-5 doublings, model-specific)	0.137	0.854	0.199	–	-0.424
in vitro model: cholesterol-high 0.2 mM, time point: constant (~7 days, model-specific)	0.089	0.983	0.491	–	-0.666
in vitro model: cholesterol-high 0.2 mM, time point: terminal (~4-5 doublings, model-specific)	0.0861	0.999	0.255	0.466	-0.935
in vitro model: dormancy (butyrate + nitrate, low O2), time point: constant (~7 days, model-specific)	0.0731	0.788	-0.136	–	0.516
in vitro model: dormancy (butyrate + nitrate, low O2), time point: terminal (~4-5 doublings, model-specific)	0.114	0.967	0.277	0.818	-0.0829
in vitro model: standard 7H9 glycerol, time point: constant = terminal	0.111	0.963	-0.113	0.12	-0.234
in vitro model: valerate, time point: constant (~7 days, model-specific)	0.144	0.899	0.000309	–	-0.321
in vitro model: valerate, time point: terminal (~4-5 doublings, model-specific)	0.0819	0.913	0.0811	-0.728	-2.83e-05

Source: the supplement of paper PMC8617591
